According to US7196192B2, “28-epirapalogs” (Ariad Gene Therapeutics, Inc., priority 1999, dated 2007):
Like-named read-outs stand apart in the source and are kept apart here.

Key:
murine splenocyte = murine splenocyte assay for immunosuppressive activity; assay type: cell-based; details: mouse splenocyte assay, methods of Example 2.5, read-out: Splenocyte IC50
Method: 3. Conventional murine splenocyte assay for immunosuppressive activity.
(§1) A diverse group of C7-modified 28-epirapalogs were prepared as described in Example 4.

FKBP = FKBP (Homo sapiens, UniProt P62942); experiment: FKBP competitive binding assay based on fluorescence polarization (FP); details: competitive FP binding, methods of Example 2.5
Method: A Competitive Binding FP Assay is described in detail in WO99/36553 and WO96/41865. That assay permits the in vitro measurement of an IC50 value for a given compound which reflects its ability to bind to an FKBP-protein in competition with a labeled FKBP ligand, such as, for example, FK506.
as §1

[1] = biological target: T1, transcriptional switch components containing FKBP and 2098L mutant FRB domains (Homo sapiens, UniProt P42345+P62942); experiment: transcription assay in engineered HD1080 cells expressing SEAP (txn 2098L); assay type: cell-based
T1 construct: transcriptional switchcomponents containing FKBP and 2098L mutant FRB domains, respectively; fused on or other part: The two switch components are separate chimeric proteins; Neither is given for this cell line
Text: The ability of the rapalogs to multimerize chimeric proteins may be measured in cell-based assays by measuring the occurrence of an event triggered by such multimerization. For instance, one may use cells containing and capable of expressing DNA encoding a first chimeric protein comprising one or more FKBP-domains and one or more effector domains as well as DNA encoding a second chimeric protein containing an FRB domain and one or more effector domains capable, upon multimerization, of actuating a biological response. We prefer to use cells which further contain a reporter gene under the transcriptional control of a regulatory element (i.e., promoter) which is responsive to the multimerization of the chimeric proteins. The design and preparation of illustrative components and their use in so engineered cells is described in WO99/36553 and WO96/41865 and the other international patent applications referred to in this and the foregoing section. (See also W099/10510 for additional guidance on the design, assembly and delivery of nucleic acids to render cells and animals responsive to rapalogs of interest and for additional guidance on applications of such systems.) The cells are grown or maintained in culture. A rapalog is added to the culture medium and after a suitable incubation period (to permit gene expression and secretion, e.g. several hours or overnight) the presence of the reporter gene product is measured. Positive results, i.e., multimerization, correlates with transcription of the reporter gene as observed by the appearance of the reporter gene product. The reporter gene product may be a conveniently detectable protein (e.g. by ELISA) or may catalyze the production of a conveniently detectable product (e.g. colored). Materials and methods for producing appropriate cell lines for conducting such assays are disclosed in the international patent applications cited above in this section.
2. EC50 values of the various compounds was measured in a transcription assay using genetically engineered HD1080 cells which constitutively express transcriptional switch components containing FKBP and 2098L mutant FRB domains, respectively and which regulatably express secreted alkaline phosphatase (SEAP) in the presence of a compound which multimerizes the switch components. The assay is a literature assay. See WO 99/36553, e.g. Example 12, pages 120–121 (& FIG. 2D) […]

[2] = cellular transcription assay, methods of Example 2.5; read-out: TXN 2098L EC50
[3] = read-out: TXN 2098L EC50; cellular transcription assay, methods of Example 2.5

Sequence of FKBP (P62942 whole entry): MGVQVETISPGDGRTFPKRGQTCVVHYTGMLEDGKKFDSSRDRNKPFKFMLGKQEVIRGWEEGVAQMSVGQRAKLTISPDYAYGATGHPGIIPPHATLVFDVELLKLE
T1 sequence (P62942 2-108 limits assumed, stated change not applied, other chains not shown): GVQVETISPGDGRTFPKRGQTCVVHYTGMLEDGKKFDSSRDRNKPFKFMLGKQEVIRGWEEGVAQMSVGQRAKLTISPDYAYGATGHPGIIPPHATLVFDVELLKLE

Row | IC50 (FKBP; read-out: FKBP IC50) [nM] | EC50 [1, 2] [nM] | IC50 (murine splenocyte; Mus musculus, Splenocyte) [nM] | Compound | IC50 (murine splenocyte) [nM] | TXN 2098L peak relative to rapamycin peak ([1]; superscript mark on EC50 cell) | IC50 (FKBP; FKBP IC50 (nM)) [nM] | EC50 [1, 3] [nM]
1 | 40 | 15 | 3450 | CO[C@@H]1C[C@H](C[C@@H](C)[C@@H]2CC(=O)[C@H](C)/C=C(\C)[C@H](O)[C@@H](OC)C(=O)[C@H](C)C[C@H](C)/C=C/C=C/C=C(\C)[C@@H](NC(=O)OCc3ccccc3)C[C@@H]3CC[C@@H](C)[C@@](O)(O3)C(=O)C(=O)N3CCCC[C@H]3C(=O)O2)CC[C@H]1O [28-epi-7S-benzylcarbamate] | – | – | – | –
2 | 70 | 18 | – | COC1CC(CC(C)C2CC(=O)C(C)C=C(C)C(O)C(OC)C(=O)C(C)CC(C)C=CC=CC=C(C)C(OCc3ccccc3)CC3CCC(C)C(O)(O3)C(=O)C(=O)N3CCCCC3C(=O)O2)CCC1O (single isomer, unassigned) [28-epi-7S-benzyloxy] | 93 | – | – | –
3 | 21 | 27 | 140 | CO[C@@H]1C[C@H](C[C@@H](C)[C@@H]2CC(=O)[C@H](C)/C=C(\C)[C@H](O)[C@@H](OC)C(=O)[C@H](C)C[C@H](C)/C=C/C=C/C=C(\C)[C@@H](N(C)S(C)(=O)=O)C[C@@H]3CC[C@@H](C)[C@@](O)(O3)C(=O)C(=O)N3CCCC[C@H]3C(=O)O2)CC[C@H]1O [28-epi-7S-N-Me-methanesulfonamide] | – | (+) (peak was >125% rapamycin peak) | – | –
4 | 4.6 | 24 | – | COc1ccccc1COC1CC2CCC(C)C(O)(O2)C(=O)C(=O)N2CCCCC2C(=O)OC(C(C)CC2CCC(O)C(OC)C2)CC(=O)C(C)C=C(C)C(O)C(OC)C(=O)C(C)CC(C)C=CC=CC=C1C (single isomer, unassigned) [28-epi-7R-2′-methoxybenzyloxy] | 653 | – | – | –
5 | 120 | 9 | – | CCOC(=O)N(C)C1CC2CCC(C)C(O)(O2)C(=O)C(=O)N2CCCCC2C(=O)OC(C(C)CC2CCC(O)C(OC)C2)CC(=O)C(C)C=C(C)C(O)C(OC)C(=O)C(C)CC(C)C=CC=CC=C1C (single isomer, unassigned) [28-epi-7R-N-methyl-ethylcarbamate] | 255 | – | – | –
6 | 11 | 20 | 0.16 | CCCCS(=O)(=O)N[C@@H]1C[C@@H]2CC[C@@H](C)[C@@](O)(O2)C(=O)C(=O)N2CCCC[C@H]2C(=O)O[C@H]([C@H](C)C[C@@H]2CC[C@@H](O)[C@H](OC)C2)CC(=O)[C@H](C)/C=C(\C)[C@H](O)[C@@H](OC)C(=O)[C@H](C)C[C@H](C)/C=C/C=C/C=C/1C [28-epi-7R-butanesulfonamide] | – | – | – | –
7 | 19 | 40 | – | COC1CC(CC(C)C2CC(=O)C(C)C=C(C)C(O)C(OC)C(=O)C(C)CC(C)C=CC=CC=C(C)C(N(C)C(=O)OCC(C)C)CC3CCC(C)C(O)(O3)C(=O)C(=O)N3CCCCC3C(=O)O2)CCC1O (single isomer, unassigned) [28-epi-7S-N-Me-isobutylcarbamate] | 1380 | – | – | –
8 | 148 | 9 | – | CCCS(=O)(=O)N(C)C1CC2CCC(C)C(O)(O2)C(=O)C(=O)N2CCCCC2C(=O)OC(C(C)CC2CCC(O)C(OC)C2)CC(=O)C(C)C=C(C)C(O)C(OC)C(=O)C(C)CC(C)C=CC=CC=C1C (single isomer, unassigned) [28-epi-7R-N-Me-propanesulfonamide] | 1370 | – | – | –
9 | 31 | 50 | 598 to 1060 | COc1ccc([C@H]2C[C@@H]3CC[C@@H](C)[C@@](O)(O3)C(=O)C(=O)N3CCCC[C@H]3C(=O)O[C@H]([C@H](C)C[C@@H]3CC[C@@H](O)[C@H](OC)C3)CC(=O)[C@H](C)/C=C(\C)[C@H](O)[C@@H](OC)C(=O)[C@H](C)C[C@H](C)/C=C/C=C/C=C/2C)c(OC)c1 [28-epi-7S-dimethoxyphenyl] | – | – | – | –

Row | Compound | IC50 (FKBP; read-out: FKBP IC50) [nM] | EC50 [1, 2] [nM] | IC50 (murine splenocyte; Mus musculus, Splenocyte) [nM] | IC50 (murine splenocyte) [nM] | TXN 2098L peak relative to rapamycin peak ([1]; superscript mark on EC50 cell) | IC50 (FKBP; FKBP IC50 (nM)) [nM] | EC50 [1, 3] [nM]
10 | COC1CC(CC(C)C2CC(=O)C(C)C=C(C)C(O)C(OC)C(=O)C(C)CC(C)C=CC=CC=C(C)C(NC(=O)Oc3ccccc3)CC3CCC(C)C(O)(O3)C(=O)C(=O)N3CCCCC3C(=O)O2)CCC1O (stereo not drawn) [28-epi-7S-phenylcarbamate] | 18 | 14 | – | > 5000 | (+) (peak was >125% rapamycin peak) | – | –
11 | COC1CC(CC(C)C2CC(=O)C(C)C=C(C)C(O)C(OC)C(=O)C(C)CC(C)C=CC=CC=C(C)C(NS(=O)(=O)N(C)C)CC3CCC(C)C(O)(O3)C(=O)C(=O)N3CCCCC3C(=O)O2)CCC1O (stereo not drawn) [28-epi-7R-dimethylsulfamide] | 29 | 20 | – | 1840 | (+) (peak was >125% rapamycin peak) | – | –
12 | CCOC(=O)N[C@H]1C[C@@H]2CC[C@@H](C)[C@@](O)(O2)C(=O)C(=O)N2CCCC[C@H]2C(=O)O[C@H]([C@H](C)C[C@@H]2CC[C@@H](O)[C@H](OC)C2)CC(=O)[C@H](C)/C=C(\C)[C@H](O)[C@@H](OC)C(=O)[C@H](C)C[C@H](C)/C=C/C=C/C=C/1C [28-epi-7S-ethylcarbamate] | – | – | > 5000 | – | – | 13 | 10
13 | 28-epi-7R-(3′-methyl)-but-4′-enyloxy | 13 | 35 | – | 3160 | – | – | –
14 | CCN([C@H]1C[C@@H]2CC[C@@H](C)[C@@](O)(O2)C(=O)C(=O)N2CCCC[C@H]2C(=O)O[C@H]([C@H](C)C[C@@H]2CC[C@@H](O)[C@H](OC)C2)CC(=O)[C@H](C)/C=C(\C)[C@H](O)[C@@H](OC)C(=O)[C@H](C)C[C@H](C)/C=C/C=C/C=C/1C)S(C)(=O)=O [28-epi-7S-N-Et-methanesulfonamide] | – | – | 1360 | – | (+) (peak was >125% rapamycin peak) | 31 | 8
15 | CCOC(=O)N[C@@H]1C[C@@H]2CC[C@@H](C)[C@@](O)(O2)C(=O)C(=O)N2CCCC[C@H]2C(=O)O[C@H]([C@H](C)C[C@@H]2CC[C@@H](O)[C@H](OC)C2)CC(=O)[C@H](C)/C=C(\C)[C@H](O)[C@@H](OC)C(=O)[C@H](C)C[C@H](C)/C=C/C=C/C=C/1C [28-epi-7R-ethylcarbamate] | – | – | > 5000 | – | (+) (peak was >125% rapamycin peak) | 7.5 | 9
16 | COC1CC(CC(C)C2CC(=O)C(C)C=C(C)C(O)C(OC)C(=O)C(C)CC(C)C=CC=CC=C(C)C(c3ccc(C)s3)CC3CCC(C)C(O)(O3)C(=O)C(=O)N3CCCCC3C(=O)O2)CCC1O (stereo not drawn) [28-epi-7S-methylthiophene] | 86 | 25 | – | 170 to 242 | – | – | –
17 | CO[C@@H]1C[C@H](C[C@@H](C)[C@@H]2CC(=O)[C@H](C)/C=C(\C)[C@H](O)[C@@H](OC)C(=O)[C@H](C)C[C@H](C)/C=C/C=C/C=C(\C)[C@@H](N(C)C(=O)Oc3ccc(C)cc3)C[C@@H]3CC[C@@H](C)[C@@](O)(O3)C(=O)C(=O)N3CCCC[C@H]3C(=O)O2)CC[C@H]1O [28-epi-7S-N-Me-p-tolylcarbamate] | 54 | 25 | – | 50 | – | – | –
18 | COc1ccc(C2CC3CCC(C)C(O)(O3)C(=O)C(=O)N3CCCCC3C(=O)OC(C(C)CC3CCC(O)C(OC)C3)CC(=O)C(C)C=C(C)C(O)C(OC)C(=O)C(C)CC(C)C=CC=CC=C2C)c(OC)c1 (stereo not drawn) [28-epi-7R-dimethoxyphenyl] | 54 | 26 | – | 22 to 28 | – | – | –
19 | CO[C@@H]1C[C@H](C[C@@H](C)[C@@H]2CC(=O)[C@H](C)/C=C(\C)[C@H](O)[C@@H](OC)C(=O)[C@H](C)C[C@H](C)/C=C/C=C/C=C(\C)[C@H](N(C)C(=O)Oc3ccc(C)cc3)C[C@@H]3CC[C@@H](C)[C@@](O)(O3)C(=O)C(=O)N3CCCC[C@H]3C(=O)O2)CC[C@H]1O [28-epi-7R-N-Me-p-tolylcarbamate] | 119 | 70 | – | 393 | – | – | –
